Data reported in patent publication US20250380697A1, “ISOXAZOLINE DERIVATIVE COMPOUND AND INSECTICIDAL COMPOSITION COMPRISING SAME” (KYUNG NONG CORPORATION, priority 2022, published 2025).

What was measured:
Assay type in all cases: in vivo
[1] = system: Phaedon brassicae; assay: Pesticidal activity against Phaedon brassicae, leaf-dipping method; conditions: counted 24, 48, 72 hours, time not given, read-out: mortality rate, Phaedon brassicae
Experimental: Cabbage (Daiya) leaves were cut into pieces with a diameter of 5.8 cm, dipped in the pesticide composition where the compound of Synthesis Example 2 was diluted (the solvent=distilled water+acetone 50,000 mg/L+Triton X-100 100 mg/L) for 30 seconds, and sufficiently shade-dried. Then, the shade-dried cabbage leaves were is placed in a petri dish (8.8 cm in diameter) covered with filter paper and repeatedly inoculated 3-5 times with the larvae of Phaedon brassicae, 10 larvae per inoculation. In particular, the Phaedon brassicae larvae used were those which were bred in the Andong National University (Korea) for multiple generations.
After the inoculation, the Phaedon brassicae larvae were stored under the conditions of 16 hours of light and 8 hours of dark, 25±1° C. and 50-60% relative humidity, and the number of live Phaedon brassicae larvae was counted 24, 48, and 72 hours after the inoculation. Thereafter, the larvae mortality rate was calculated in the same manner as in Test Example 1 above.

[2] = system: Frankliniella occidentalis; assay: Pesticidal activity against Frankliniella occidentalis, spray method; conditions: 48 h, read-out: mortality rate, Frankliniella occidentalis
Text: A water-soaked filter paper (9.0 cm in diameter) was placed in an insect breeding dish (Lab Guide®) with a diameter of 9.0 cm and a height of 4.0 cm, and then parafilm (width 4.0 cm×height 4.0 cm) was placed thereon. Before treating with a pesticide composition, 10 adult Frankliniella occidentalis were inoculated per petri dish using a No. 4 brush. In this case, Frankliniella occidentalis adults used were those purchased from the Bio Utilization Institute (Andong, Korea). Then, each of the pesticide compositions prepared in Examples (a diluted solution in which each of the compounds of Synthesis Examples (concentration: 100 ppm) was diluted; the solvent=distilled water+acetone 50,000 mg/L+Triton X-100 100 mg/L) was loaded into a 100 mL small sprayer, and sprayed 10-12 times at a distance of 30 cm and a height of 50 cm, and one cotyledons of soybean, which is a host plant, were added one at a time. Then, the Frankliniella occidentalis adults were stored under the conditions of 16 hours of light and 8 hours of darkness, 25±1° C., and relative humidity of 50-60%, and the number of live Frankliniella occidentalis adults was counted 48 hours after the inoculation. Thereafter, the larvae mortality rate was calculated in the same manner as in Test Example 1 above.

[3] = system: Thrips tabaci Lindeman; assay: Pesticidal activity against Thrips tabaci Lindeman, spray method; conditions: adults, counted 24 and 48 hours, time not given, read-out: mortality rate, Thrips tabaci Lindeman
Text: A water-soaked filter paper (9.0 cm in diameter) was placed in an insect breeding dish (Lab Guide®) with a diameter of 9.0 cm and a height of 4.0 cm, and then parafilm (width 4.0 cm×height 4.0 cm) was placed thereon. Before being treated with a pesticide composition, 10 adult Thrips tabaci Lindeman were inoculated per petri dish using a No. 4 brush. In this case, Thrips tabaci Lindeman adults used were those collected in a place near the Andong National University (Korea) and bred for multiple generations. Then, the pesticide composition where the compound of Synthesis Example 2 was diluted (the solvent=distilled water+acetone 50,000 mg/L+Triton X-100 100 mg/L) was loaded into a 100 mL small sprayer, and sprayed 10-12 times at a distance of 30 cm and a height of 50 cm, and one cotyledons of soybean, which is a host plant, were added one at a time. Then, the Thrips tabaci Lindeman adults were stored under the conditions of 16 hours of light and 8 hours of darkness, 25±1° C., and relative humidity of 50-60%, and the number of live Thrips tabaci Lindeman adults was counted 24, and 48 hours after the inoculation. Thereafter, the larvae mortality rate was calculated in the same manner as in Test Example 1 above.

## CCN1OC[C@@H](NC(=O)c2ccc(C3=NO[C@@](c4cc(Cl)c(F)c(Cl)c4)(C(F)(F)F)C3)cc2C)C1=O [Comparative Example 3, isocycloseram]
[1]; 1 ppm
  mortality at 1 ppm: 100%
[1]; 3 ppm
  mortality at 3 ppm: 100%
[1]; 10 ppm
  mortality at 10 ppm: 100%
[2]
  mortality at 5 ppm: 100%
  mortality at 10 ppm: 100%
[3]; 1 ppm
  mortality at 1 ppm: 66%
[3]; 3 ppm
  mortality at 3 ppm: 76%
[3]; 10 ppm
  mortality at 10 ppm: 90%
